Common to all, as to experiment: relative viability (nuclei count vs DMSO), 5 days (fraction); higher = more cells survive
Compound in the test “Ibrutinib + Linsitinib”: C=CC(=O)N1CCC[C@@H](n2nc(-c3ccc(Oc4ccccc4)cc3)c3c(N)ncnc32)C1 [Ibrutinib] + C[C@]1(O)C[C@@H](c2nc(-c3ccc4ccc(-c5ccccc5)nc4c3)c3c(N)nccn32)C1 [Linsitinib] (partner 1 µM)
Put shortly:
(§1)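 Cells from lung cancer lines were seeded into 1536-well plates and, one day later, dosed by pin tool. Treatments were either a single drug or a fixed dose of an anchor drug with five library-drug doses (not always all listed) in √10 steps. After 5 days, nuclei were stained in a one-step fixation (final 0.05% Triton X-100, 1% formaldehyde, 1 ug/ml Hoechst) and counted on 4× images, and relative viability is the treated-to-vehicle nuclei ratio, as the median of duplicate plates.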

Compound in the test “BMX-IN-1 + Pictilisib”: C=CC(=O)Nc1cc(-n2c(=O)ccc3cnc4ccc(-c5ccc(NS(C)(=O)=O)cc5)cc4c32)ccc1C [BMX-IN-1] + CS(=O)(=O)N1CCN(Cc2cc3nc(-c4cccc5[nH]ncc45)nc(N4CCOCC4)c3s2)CC1 [Pictilisib] (partner 1 µM)
The gist of the method:
as §1

Compound in the test “BMX-IN-1 + Pemetrexed”: C=CC(=O)Nc1cc(-n2c(=O)ccc3cnc4ccc(-c5ccc(NS(C)(=O)=O)cc5)cc4c32)ccc1C [BMX-IN-1] + Nc1nc2[nH]cc(CCc3ccc(C(=O)N[C@@H](CCC(=O)O)C(=O)O)cc3)c2c(=O)[nH]1 [Pemetrexed] (partner 0.2 µM)
The gist of the method:
as §1

Compound in the test “PAC-1 + Palbociclib”: C=CCc1cccc(/C=N/NC(=O)CN2CCN(Cc3ccccc3)CC2)c1O [PAC-1] + CC(=O)c1c(C)c2cnc(Nc3ccc(N4CCNCC4)cn3)nc2n(C2CCCC2)c1=O [Palbociclib] (partner 0.5 µM)
The gist of the method:
as §1

For SK-MES-1, the relative viability in the test with Ibrutinib + Linsitinib (first compound 0.005 µM) came to 1.06; with Ibrutinib + Linsitinib (first compound 0.01581 µM), 0.937; in the test with Ibrutinib + Linsitinib (first compound 0.05 µM) it was 1.11; in the test with Ibrutinib + Linsitinib (first compound 0.1581 µM), 1.06; with Ibrutinib + Linsitinib (first compound 0.5 µM), 0.447; in the test with BMX-IN-1 + Pictilisib (first compound 0.02 µM), 0.345. For the same cell line, the relative viability with BMX-IN-1 + Pictilisib (first compound 0.2 µM) was determined as 0.383; in the test with BMX-IN-1 + Pictilisib (first compound 0.6325 µM), 0.414; with BMX-IN-1 + Pictilisib (first compound 2 µM), 0.344; with BMX-IN-1 + Pemetrexed (first compound 0.02 µM), 1.11; with BMX-IN-1 + Pemetrexed (first compound 0.2 µM) it was 1.11; in the test with BMX-IN-1 + Pemetrexed (first compound 0.6325 µM), 1.03. The relative viability with BMX-IN-1 + Pemetrexed (first compound 2 µM) came to 0.859; in the test with PAC-1 + Palbociclib (first compound 0.02 µM), 0.336; with PAC-1 + Palbociclib (first compound 0.06325 µM), 0.311; in the test with PAC-1 + Palbociclib (first compound 0.2 µM), 0.315; with PAC-1 + Palbociclib (first compound 2 µM), 0.308.
